In US20260198497A1, “A BENZENE RING-SUBSTITUTED PYRIMIDINECARBOXYLIC ACID COMPOUND, PREPARATION METHOD THEREFOR, HERBICIDAL COMPOSITION AND APPLICATION THEREOF” (QINGDAO KINGAGROOT CHEMICAL COMPOUND CO., LTD., priority 2023, published 2026):

Experiments:
Monochoria vaginalis = assay: Activity assay of compositions, post-emergence spray of stems and leaves; format: in vivo; settings: for Control effect of B applied alone in a corresponding dose (%): 21 days
Protocol: (§1) The required active ingredient B was purchased from a reagent company or a technical material manufacturer or synthesized by a conventional method. […] The technical materials were all dissolved with acetone solvents and diluted with aqueous solution of 0.1% Tween® 80 emulsifier, which should be used immediately after dilution.
(§2) Weeds were cultivated by a pot culture method. […] Weed seeds with plump and uniform grains were selected, soaked in lukewarm water at 25° C. for 6 hours, and accelerated to germinate in a 28° C. biochemical incubator (in darkness). The weed seeds that had just germinated were evenly placed on the surface of the soil and then covered with 0.5-1 cm soil according to the sizes of seeds.
(§3) The weeds were cultured in a controllable sunlight greenhouse at 20-30° C., in natural light, and with relative humidity of 57%-72%. The soil was loam with an organic matter content of 1.63%, a pH value of 7.1, alkali-hydrolyzable nitrogen of 84.3 mg/kg, rapidly available phosphorus of 38.5 mg/kg, and rapidly available potassium of 82.1 mg/kg.
(§4) Each treatment was repeated 4 times for 3 pots. Each pot was seeded with 20 weed seeds.
(§5) The drugs were applied once in total in the experiment. When at the stage of 1.5-2 leaves, the weeds were thinned out to maintain 10 strains per pot. Thirty strains were kept in each treatment and then continued to be cultured until the Erigeron canadensis reached 10 cm tall and other weeds in their 3-4 leaf stage for further treatment.
(§6) The well-cultured test materials were evenly placed on a 0.5 m^2 platform and foliage-sprayed by the 3WP-2000-type walking spray tower at a dosage of […] and a spray pressure of 0.3 MPa. After all the drug solution was sprayed, the air valve was closed. And 30 seconds later, the door of the spray tower was opened, and the nutritional bowl was taken out. Next, the air valve was opened, and the spray tube was cleaned by spraying 50 ml of water. The test materials were transferred to and routinely cultured in a greenhouse after the treatment.
(§7) A method for investigating absolute numbers was employed. The whole seedlings of the survival weeds were cut along the soil surface with a blade, and the fresh weight of the weeds was weighed by an analytical balance. For dead weeds, the fresh weight thereof was considered zero.
(§8) The investigation was performed 21 days after the treatment for once in total.
(§9) The theoretical fresh weight inhibition rate of a mixed combination of each treatment was calculated by the Gowing method (E0=X+Y−X*Y/100). Then compared with the measured inhibition rate (E), the type of the combined action of the combination of the two on weeds was evaluated, which was a synergistic effect when E−E0>10; an antagonistic effect when E−E0<−10%; an additional effect when −10≤E−E0≤100. An optimal ratio was determined according to factors such as the actual control effects, characteristics of herbicides, balance of the formulation, etc. In the formula, X represents the fresh weight inhibition rate of the active ingredient A in a dosage of P; Y represents the fresh weight inhibition rate of the active ingredient B in a dosage of Q. The statistical results are shown in Table 5 below.

Lindernia procumbens = assay: as above; format: in vivo; settings: for Control effect of B applied alone in a corresponding dose (%): 21 days
Text: (§10) The required active ingredient B was purchased from a reagent company or a technical material manufacturer or synthesized by a conventional method. The active ingredient A was Compound 74 in Table 1. The technical materials were all dissolved with acetone solvents and diluted with aqueous solution of 0.1% Tween® 80 emulsifier, which should be used immediately after dilution.
as §2, §3, §4, §5, §6, §7, §8, §9

Veronica [1] = assay: Post-emergence test on weeds; format: in vivo; set-up: key: 0 = no effect, 9 = completely dead (levels by growth control rate); settings: 30 g a.i./ha, 3 weeks after application
Outline: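 Sow in pots, cover 0.5-2 cm soil, greenhouse; spray at 2-3 leaf (2 wk); acetone/Tween 80 formulation + methyl oleate 1.5 L/ha; 120/60/30/15 g a.i./ha, n=3; score 0-9 on fresh-wt control at 3 wk.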

Veronica [2] = assay: Activity assay of compositions, post-emergence spray of stems and leaves; format: in vivo; settings: A 3 g a.i./ha, fresh weight inhibition, 21 days after treatment
Protocol: as §1, §2, §4, §5, §6, §7, §8
as §9, with “Then compared with the measured inhibition rate (E), the type of the combined action of the combination of the two on weeds was evaluated, which was a synergistic effect when E−E0>10; an antagonistic effect when E−E0<−10%; an additional effect when −10≤E−E0≤100.” left out

Euphorbia helioscopia = assay: as above; format: in vivo; settings: A 3 g a.i./ha, fresh weight inhibition, 21 days after treatment, listed as A
Text: as §10, §2, §3, §4, §5, §6, §7, §8, §9

Radish = assay: Post-emergence test, crop safety; settings: in vivo, 3 weeks
Text: (§11) The criteria for activity levels of plant damage (i.e., growth control rate) are as follows: • Level 9: completely dead; • Level 8: growth control rate is greater than or equal to 90% and less than 100%; • Level 7: growth control rate is greater than or equal to 80% and less than 90%; • Level 6: growth control rate is greater than or equal to 70% and less than 80%; • Level 5: growth control rate is greater than or equal to 50% and less than 70%; • Level 4: growth control rate is greater than or equal to 30% and less than 50%; • Level 3: growth control rate is greater than or equal to 20% and less than 30%; • Level 2: growth control rate is greater than or equal to 10% and less than 20%; • Level 1: growth control rate is less than 10%; • Level 0: no effect.
(§12) The above growth control rates are fresh weight control rates.
(§13) Monocotyledonous and dicotyledonous weed seeds (Descurainia sophia, Capsella bursa-pastoris, Abutilon theophrasti, Galium spurium, Stellaria media, Lithospermum arvense, Rorippa indica, Alopecurus aequalis, Alopecurus japonicus, Eleusine indica, Beckmannia syzigachne, Sclerochloa dura, Erigeron canadensis, Phleum paniculatum, Veronica, Bromus japonicus, Aegilops tauschii, Phalaris arundinacea, Amaranthus retroflexus, Chenopodium, Commelina communis, Cichorium endivia, Convolvulus arvensis, Cirsium arvense, Solanum nigrum, Acalypha australis, Digitaria sanguinalis, Echinochloa crusgalli, Setaria viridis, Setaria pumila, Leptochloa chinensis, Monochoria vaginalis, Sagittaria trifolia, Schoenoplectiella juncoides, Cyperus rotundus, Cyperus iria, Cyperus difformis, Fimbristylis, Portulaca oleracea, Xanthium sibiricum, Ipomoea nil, Eschenbachia japonica, etc.) and major crop seeds (wheat, maize, paddy rice, soybean, cotton, oilseed rape, millet, sorghum, potato, sesame, castor plant, Chinese cabbage, radish, etc.) were placed in plastic pots filled with soil and then covered with 0.5-2 cm of soil to allow them to grow in a favorable greenhouse environment. Two weeks after sowing, the test plants were treated at the stage of 2-3 leaves. The test compounds of the present invention were individually dissolved with acetone, then added with Tween® 80, with 1.5 L/ha of methyl oleate emulsifiable concentrate as a synergist, diluted into solution of a certain concentration using a certain amount of water, and sprayed to plants using a spray tower. After drug application, the experimental results on weeds were collected after 3 weeks of cultivation in a greenhouse. The compounds were applied at 120, 60, 30, and 15 g a.i./ha in triplicate, and the results were averaged.

Oilseed rape = assay: Post-emergence test, crop safety; settings: in vivo, 3 weeks
Text: as §11, §12, §13

Wheat = assay: Post-emergence test, crop safety; settings: in vivo, 3 weeks
Text: as §11, §12, §13

Chinese cabbage = assay: Post-emergence test, crop safety; settings: in vivo, 3 weeks
Text: as §11, §12, §13

Maize = assay: Post-emergence test, crop safety; settings: in vivo, 3 weeks
Text: as §11, §12, §13

Paddy rice = assay: Post-emergence test, crop safety; settings: in vivo, 3 weeks
Text: as §11, §12, §13

[3] = A 3 g a.i./ha, fresh weight inhibition, 21 days after treatment

SMILES: CC(C)N1C(=O)c2ccccc2NS1(=O)=O [Bentazone, bentazone]
- Control effect of B applied alone in a corresponding dose (%) (Monochoria vaginalis; B 150 g a.i./ha): 45.2%
- Control effect of B applied alone in a corresponding dose (%) (Monochoria vaginalis; B 300 g a.i./ha): 60.5%

SMILES: CCC(=O)Nc1ccc(Cl)c(Cl)c1 [Propanil, propanil]
- Control effect of B applied alone in a corresponding dose (%) (Monochoria vaginalis; B 600 g a.i./ha): 22.1%
- Control effect of B applied alone in a corresponding dose (%) (Monochoria vaginalis; B 1200 g a.i./ha): 37.4%

SMILES: CC(C)C12CCC(C)(O1)C(OCc1c(F)cccc1Br)C2 (centres unmarked)
- Control effect of B applied alone in a corresponding dose (%) (Lindernia procumbens; B 7.5 g a.i./ha): 42.8%
- Control effect of B applied alone in a corresponding dose (%) (Lindernia procumbens; B 15 g a.i./ha): 60.7%

SMILES: COCCOC(=O)c1nc(-c2ccc(C(F)(F)F)c(OC)c2F)nc(N)c1OC [Compound 74]
- activity level of plant damage (growth control rate), Veronica (Veronica [1]): 9
- Control effect of A applied alone in a corresponding dose (%) (Veronica [2]): 62.3%
- Control effect of A applied alone in a corresponding dose (%) (Monochoria vaginalis; [3]): 66.4%
- Control effect of A applied alone in a corresponding dose (%) (Euphorbia helioscopia): 58.0%
- Control effect of A applied alone in a corresponding dose (%) (Lindernia procumbens; [3]): 37.7%
- activity level of plant damage (growth control rate), Radish (Radish): 0
- activity level of plant damage (growth control rate), Oilseed rape (Oilseed rape): 0
- activity level of plant damage (growth control rate), Wheat (Wheat): 0
- activity level of plant damage (growth control rate), Chinese cabbage (Chinese cabbage): 0
- activity level of plant damage (growth control rate), Maize (Maize): 0
- activity level of plant damage (growth control rate), Paddy rice (Paddy rice): 0
